Read-outs that look alike come from different tables or passages of the source.
Tests used:
F-ATPase [1] = molecular target: T1, F-ATPase (Bos taurus, UniProt P00829); experiment: Inhibition of F-ATPase activity in submitochondrial particles from beef heart; format: biochemical; details: beef heart submitochondrial particles
T1 construct: Submitochondrial particles were obtained by ultrasonic treatment of the mitochondria; from tissue; host or cells: beef heart mitochondria, submitochondrial particles
Description: (§1) The V-ATPase holoenzyme was purified as published elsewhere. Preparation of highly purified membranes containing Na^+/K^+-ATPase from pig kidney followed the protocol of Jørgensen with the three main steps of differential centrifugation, incubation with SDS in the presence of ATP and sucrose density gradient centrifugation in a fixed angle rotor, and led to a specific enzyme activity which was in the same range as that reported by the authors. The resulting sample was stored frozen at -20°C. To prepare crude membrane extracts, the hearts of three mice were washed three times with an ice-cold buffer of pH 8.1 consisting of 0.25 M sucrose, 5 mM Tris-HCl, 5 mM EDTA, and 10 mM Pefabloc SC (Biomol), homogenized in 5 ml of this buffer and centrifuged at 4°C for 25 min at 233,000 × gmax in a fixed angle rotor. The resulting pellet was resuspended in 5 ml of a buffer of pH 7.5, consisting of 5 mM Tris-MOPS (3-morpholinopropanesulfonic acid), 10 mM NaCl, 10 mM Pefabloc SC, 9.6 mM 2-mercaptoethanol, 0.53 mM EGTA and 0.1 % Triton X-100. After an aliquot for protein determination had been taken, 10% bovine serum albumin (final concentration) was added to the suspension which was then stored on ice until the activity assays were run. Beef heart mitochondria were isolated by differential centrifugation, following the protocol of Smith by using a blender to homogenize the heart mince. The initial homogenization buffer consisted of 250 mM saccharose, 10 mM KH2PO4, 10 mM Tris, 2 mM EGTA, 2 mM MgCl2, pH 7.4, and further isolation procedures were carried out in the same medium without EGTA [24]. Submitochondrial particles were obtained by ultrasonic treatment of the mitochondria.
(§2) Standard V-ATPase assays with a final volume of 160 μl and a pH of 8.1 consisted of 3–4 μg of protein, 50 mM Tris-MOPS, 3 mM 2-mercaptoethanol, 1 mM MgCl2, 20 mM KCl, 0.003% C12E10, 20 mM NaCl, and 3 mM Tris-HCl. After 5 min of pre-incubation at 30°C with or without inhibitors, 1 mM Tris-ATP was added and after incubation for 2 min the reaction was stopped by placing the tube in liquid nitrogen. Assays using Na^+/K^+-ATPase were performed in 160 μl at pH 7.5 and contained 0.5 μg of protein, 50 mM Tris-MOPS, 5 mM imidazole, 0.2 mM EDTA, 4 mM MgCl2, 20 mM KCl and 100 mM NaCl. After 5 min of pre-incubation at 37°C with or without inhibitors, 3 mM Tris-ATP was added and after 1 min of incubation the reaction was stopped by placing the tube in liquid nitrogen. […] After 5 min of pre-incubation at 30°C with or without inhibitors, 1 mM Tris-ATP was added and after an incubation time of 10 min the reaction was stopped by placing the tubes in liquid nitrogen. ATPase assays with submitochondrial particles from beef heart were performed in a final volume of 1 ml and a pH of 8.0. The samples contained 9–12 μg protein, 50 mM Tris, 50 mM KCl and 2.5 mM MgCl2. After 5 min of preincubation with or without inhibitors, 5 mM ATP was added, and after an additional incubation time of 15 min the reaction was stopped by the addition of 0.4 ml of 20 % TCA.
(§3) Inorganic phosphate produced in the assays of V-ATPase, Na^+/K^+-ATPase and mouse heart F-ATPase was measured according the protocol of Wieczorek et al., while the determination of inorganic phosphate produced in the assays of beef heart F-ATPase followed the method of Fiske and Subarrow using ascorbic acid as reducing agent.

fungi = details: ref [11],[15],[17]; cited from earlier work
F-ATPase [2] = molecular target: T2, F-ATPase (Mus musculus, UniProt P56480); experiment: Inhibition of F-ATPase activity in crude membranes from mouse heart; format: biochemical; details: mouse heart crude membranes
T2 construct: we prepared mitochondria rich crude membranes from mouse heart; from tissue; host or cells: mouse heart, crude membrane extract
Description: as §1, §2, §3

M1 = experiment: Growth inhibition of M1 cells (MTT assay); format: cell-based, mouse; details: 120 h, read-out: IC50 growth inhibition
Description: (§4) Cell lines were obtained from the German Collection of Microorganisms and Cell Cultures (DSMZ). Cell lines 3Y1 and M1 (embryonal fibroblasts from 129/Ola × C57BL/6 mice, [30]) were a generous gift from Dr. S. Miyamoto, Fukoka, Japan, and Dr. P. F. Mühlradt, Braunschweig, Germany. All cell lines were cultivated under conditions recommended by the supplier. Growth inhibition was measured in microtiterplates. Aliquots of 120 μl of the suspended cells (50,000/ml) were given to 60 μl of a serial dilution of the inhibitor. After 5 days, growth was determined using the MTT assay.

PtK2 cells = experiment: Inhibition of lysosomal acidification (LysoTracker staining); format: cell-based, potoroo; details: 4 hours with inhibitor
Description: PtK2 (ATCC CCL-56) or KB-3-1 cells were grown on glass coverslips (13 mm diameter) in four-well-plates. Exponentially growing cells were incubated with the inhibitors for 4 hours and stained for lysosomes with 50 nM LysoTracker Red DND-99 and for mitochondria with 75 nM MitoTracker Green FM (both from Molecular Probes) at 37°C for 30 min. The nuclei were stained using Hoechst 33258 (5 μg/ml). The coverslips were mounted upside down in PBS, fixed with nail polish, and observed under the fluorescent microscope.

bacterial growth = details: ref [11],[15],[17]; cited from earlier work
L-929 = test system: L-929; design: method as in PMID 12931860; details: L-929, murine connective tissue; ref [17]; read-out: IC50 growth inhibition; cited from earlier work
Vo subunit c [3] = molecular target: T3, Vo subunit c (Manduca sexta, UniProt P31403); experiment: Protection of V-ATPase subunit c from photoaffinity labelling by I-concanolide A; format: binding; details: pre-incubation 100 μM or 10 μM, 60 min on ice; I-concanolide A 10 μM; UV
T3 construct: from tissue; host or cells: midgut of Manduca sexta larvae (purified V-ATPase)
T3 sequence (P31403 whole entry): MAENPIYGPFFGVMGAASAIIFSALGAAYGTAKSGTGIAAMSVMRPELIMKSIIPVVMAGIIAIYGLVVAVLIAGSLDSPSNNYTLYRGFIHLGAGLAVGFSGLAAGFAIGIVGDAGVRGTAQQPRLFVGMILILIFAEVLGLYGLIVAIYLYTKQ
Description: Twenty micrograms of the samples were pre-incubated with the inhibitors for 1 h on ice. The labelled I-concanolide A was then added to give a final concentration of 10 μM. Controls were run without effectors. Mixtures with volumes of 40 μl were incubated for an additional 1 h on ice and then treated for 3 min with UV light (366 nm) on ice. After UV irradiation, 10 μl of 5-fold sample buffer was added, the mixture was heated for 45 s at 95°C, cooled on ice, and subjected to Tricine-SDS-PAGE (16.5% T, 3% C separating gel and 10%T, 3% C spacer gel), followed by Coomassie staining. The gels were sealed in plastic wrap before they were exposed to a phosphoscreen for up to 72 h and analyzed with the aid of a phosphoimager (Molecular Dynamics).

[4] = molecular target: T4, V-ATPase holoenzyme from the midgut of the tobacco hornworm (Manduca sexta, UniProt P31403); experiment: Inhibition of purified V-ATPase holoenzyme activity; format: biochemical; details: for IC50 per mg of protein, purified V-ATPase: equivalent of the half-maximal concentration
T4 construct: purified V-ATPase holoenzyme from the midgut of the tobacco hornworm; from tissue; host or cells: midgut of fifth instar Manduca sexta larvae
T4 sequence (P31403 whole entry): as above
Description: as §1, §2, §3
Fifth instar larvae of M. sexta (Lepidoptera, Sphingidae), weighing 6–8 g, were reared under long day conditions (16 h of light) at 27°C using a synthetic diet modified according to Bell et al.

3Y1 = experiment: Growth inhibition of 3Y1 cells (MTT assay); format: cell-based, rat; details: read-out: IC50 growth inhibition
Description: as §4

A-594 [5] = experiment: Growth inhibition of A-594 cells (MTT assay); format: cell-based, human; details: 120 h, read-out: IC50 growth inhibition
Description: as §4

KB-V1 = experiment: Growth inhibition of multidrug-resistant KB-V1 cells (MTT assay), with or without verapamil; format: cell-based; details: 120 h; KB-V1, mdr human cervix carcinoma; without verapamil; MTT after 5 days
Description: The novel antibiotics archazolids and apicularens (Fig. 1) were checked for their impact on the cell growth of a variety of mammalian cell lines from different tissues (Tab. 1). […] Apicularen B was the only exception, with an average IC50 value two orders of magnitude higher. Growth inhibition of the multidrug-resistant cell line KB-V1 was also measured in the presence of verapamil. […] The data in Tab 1. show, that unlike the archazolids, the apicularens are poor substrates of Pgp. To visualize the impact of the antibiotics, PtK2 (potoroo kidney) cells were incubated with the inhibitors and stained for intact acidic lysosomes (Fig. 2). […] The same observation was made with KB-3-1 cells (data not shown). […] Unlike the cell lines listed in Tab. 1, the growth of PtK2 cells was not completely stopped. The same holds true for A-498 cells (human kidney carcinoma). Both cell lines grow epithelial-like. There was obviously a differential reaction of cell lines to V-ATPase inhibitors. For A-431 cells (human epidermoid carcinoma) a dependence on the expression of the EGF receptor was shown.
as §4

Na+/K+-ATPase = molecular target: T5, Na+/K+-ATPase (Sus scrofa, UniProt P05024); experiment: Inhibition of Na+/K+-ATPase from pig kidney; format: biochemical; details: inhibitor 1 μM
T5 construct: highly purified, Na^+/K^+-ATPase containing plasma membranes from pig kidney; from tissue; host or cells: pig kidney, purified plasma membranes
Description: as §1, §2, §3

Vo subunit c [6] = molecular target: T3, Vo subunit c; design: method as in PMID 12186879; details: previous study; ref [10]; cited from earlier work
mammalian V-ATPases = details: ref [11],[15],[17]; cited from earlier work
V-ATPases from fungi = details: Saccharomyces cerevisiae or Neurospora crassa; ref [11],[15],[17]; cited from earlier work
[7] = molecular target: T4, V-ATPase holoenzyme from the midgut of the tobacco hornworm; design: method as in PMID 12186879; details: ref [10], cited from earlier work; for IC50: read-out: half-maximal inhibition concentration of purified V-ATPase
A-594 [8] = test system: A-594; design: method as in PMID 10048565; details: A-594, human lung carcinoma; ref [15]; read-out: IC50 growth inhibition; cited from earlier work
[9] = M1, mouse embryogenic fibroblast cell line, MTT after 5 days
[10] = 120 h, 3Y1, rat embryogenic fibroblast cell line, MTT after 5 days

Molecule | red LysoTracker staining indicating acidic lysosomes (PtK2 cells) | inhibition of bacterial growth (bacterial growth) | IC50 (L-929) [nM] | labelling of subunit c by I-concanolide A after pre-incubation (Vo subunit c [3]) | IC50 per mg of protein, purified V-ATPase [4] | IC50 (KB-V1) [nM] | specific activity of Na+/K+-ATPase (Na+/K+-ATPase; experiment 1, control 19.0) [µmol/mg/min] | specific activity of Na+/K+-ATPase (Na+/K+-ATPase; experiment 2, control 15.9) [µmol/mg/min] | effect on Na+/K+-ATPase activity (Na+/K+-ATPase) | labelling of / binding to subunit c (Vo subunit c [6]) | IC50 per mg of protein, purified V-ATPase [7] | IC50 [7] [nM] | IC50 (M1; [9]) [nM] | IC50 (3Y1; [10]) [nM] | further results
archazolid | – | – | – | – | – | – | – | – | – | – | – | – | – | – | ATPase activity reduced to (remaining activity) (F-ATPase [1]; inhibitor 1 μM): approximately 80%; effect of increased inhibitor concentration on F-ATPase activity (F-ATPase [1]; inhibitor 10 μM): no substantial effect; activity against fungi (fungi): weak activity; ATPase activity reduced to (remaining activity) (F-ATPase [2]; inhibitor 1 μM): approximately 80%; effect of increased inhibitor concentration on F-ATPase activity (F-ATPase [2]; inhibitor 10 μM): no substantial effect
CNC(=O)O[C@@H](CC(C)C)c1nc([C@H]2OC(=O)/C(C)=C/C/C(C)=C/[C@@H](O)[C@@H](C)\C=C(C)/C=C(C)\C=C\[C@@H](O)[C@H](C)[C@H](OC)/C(C)=C/C=C/[C@@H]2C)cs1 [archazolid A] | disappeared | failed to inhibit | 0.81 | completely abolished | ca. 0.8 nmol per mg of protein | 48 | 17.1 | 12.2 | only slightly affected | – | – | – | – | – | IC50 (M1; Mus musculus, Fibroblast): 0.27 nM; IC50 [4]: ~20 nM; IC50 (3Y1; Rattus norvegicus, 3Y1, 120 h): 0.95 nM; IC50 (A-594 [5]; Homo sapiens): 0.54 nM
salicylihalamide | – | failed to inhibit | – | – | – | – | – | – | – | does not bind to subunit c | ca. 0.5 nmol per mg of protein | ~10 | – | – | inhibition of mammalian V-ATPases (mammalian V-ATPases): effectively inhibited; inhibition of V-ATPases from fungi (V-ATPases from fungi): not at all
C/C=C/[C@H]1O[C@@](O)([C@@H](C)[C@H](O)[C@H](C)[C@H]2OC(=O)/C(OC)=C/C(C)=C/[C@@H](C)[C@@H](O)[C@@H](CC)[C@@H](O)[C@H](C)C/C(C)=C/C=C/[C@@H]2OC)C[C@@H](O[C@H]2C[C@@H](O)[C@H](OC(N)=O)[C@@H](C)O2)[C@@H]1C [concanamycin A, reference compound] | disappeared | – | 0.23 | – | – | 28 | 16.7 | 12.7 | slight inhibition of comparable size | prevented | ca. 0.5 nmol per mg of protein | ~10 | 0.56 | 1.4 | IC50 (A-594 [5]; A-594, human lung carcinoma, MTT after 5 days): 0.17 nM
CC/C=C\C=C/C(=O)N/C=C/C[C@H]1C[C@H]2C[C@H](O)C[C@H](Cc3cccc(O)c3C(=O)O1)O2 [apicularen A] | disappeared | failed to inhibit | – | did not appear to interfere | ca. 0.8 nmol per mg of protein | 23 | 17.3 | 13.2 | only slightly affected | – | – | – | 1.4 | 3.2 | IC50 (A-594 [8]): 0.23 nM; IC50 ([4]; purified holoenzyme, 3–4 μg protein, pH 8.1, 30°C, read-out: half-maximal inhibition concentration of purified V-ATPase): ~20 nM

— PMC1190152, “Archazolid and apicularen: Novel specific V-ATPase inhibitors” (BMC Biochemistry, 2005)
